# Legend:
# [1] = In vitro metabolic stability in rat hepatocytes; assay type: in vitro ADME; settings: 1 μM, in vitro metabolic stability given as calculated maximal oral bioavailability
# Protocol: Determination of in vitro metabolic stability in rat hepatocytes (including calculation of hepatic in vivo blood clearance (CL))
# Hepatocytes from Han Wistar rats were isolated via a 2-step perfusion method. After perfusion, the liver was carefully removed from the rat: the liver capsule was opened and the hepatocytes were gently shaken out into a Petri dish with ice-cold Williams' medium E (WME). The resulting cell suspension was filtered through sterile gaze in 50 mL falcon tubes and centrifuged at 50×g for 3 min at room temperature. The cell pellet was resuspended in 30 mL WME and centrifuged through a Percoll® gradient for 2 times at 100×g. The hepatocytes were washed again with WME and resuspended in medium containing 5% FCS. Cell viability was determined by trypan blue exclusion.
# The test compound was added to a final concentration of 1 μM. […] Samples were frozen at −20° C. overnight, subsequently centrifuged for 15 minutes at 3000 rpm and the supernatant was analyzed with an Agilent 1200 HPLC-system with LCMS/MS detection.
# (§1) The half-life of a test compound was determined from the concentration-time plot. From the half-life (kel: slope of concentration-time plot; half-life=ln 2/kel) the intrinsic clearances were calculated. Together with the additional parameters liver blood flow, amount of liver cells in vivo and in vitro.
# (§2) Metabolic instability is often the main clearance mechanism of xenobiotica leading to a high CL and low bioavailability which may eventually result in a short half-life and a low exposure after oral administration. Thus, reducing the susceptibility of metabolic degradation usually leads to a more favourable pharmacokinetic profile. When using liver microsomes as incubation matrix main phase I metabolic reactions, typically oxidoreductive reactions by cytochrome P450 enzymes and flavin mono-oxygenases (FMO) and hydrolytic reactions by esterases/amidases/epoxidhydrolases, are described. When the incubation of the test compound is performed in a hepatocyte matrix all potential hepatic metabolic processes (phase I and phase II) are covered.
# [2] = In vitro metabolic stability in liver microsomes (calculation of CL and Fmax); assay type: in vitro ADME, human; settings: 1 μM, in vitro metabolic stability given as calculated maximal oral bioavailability
# Protocol: Determination of in vitro metabolic stability in microsomes (including calculation of hepatic in vivo blood clearance (CL) and of maximal oral bioavailability (Fmax))
# The metabolic assay was started shortly afterwards by adding the test compound to the incubation at a final volume of 1 mL. Organic solvent in the incubations was limited to ≤0.01% dimethylsulfoxide (DMSO) and ≤1% acetonitrile. […] Samples were frozen at −20° C. overnight, subsequently centrifuged for 15 minutes at 3000 rpm and the supernatant was analyzed with an Agilent 1200 HPLC-system with LCMS/MS detection.
# as §1, with “specific” for “amount of”, “weight and microsomal protein content the hepatic” for “cells”, “vivo blood clearance (CL)” for “vivo”, “the maximal oral bioavailability (Fmax) were calculated for the different species.” for “in vitro.”
# as §2
# CYP2C8 = CYP2C8 (Homo sapiens (Human), UniProt P10632); assay: CYP inhibition assay, CYP2C8; assay type: in vitro ADME; settings: human liver microsomes, probe amodiquine
# Protocol: (§3) Method Description CYP Inhibition Assay
# (§4) Data analysis: The CYP-mediated activities in the presence of inhibitors were expressed as percentages of the corresponding control values. A sigmoid-shaped curve was fitted to the data, and the enzyme inhibition parameter IC50 was calculated using a nonlinear least-squares regression analysis of the plot of percent control activity versus concentration of the test inhibitor.
# CYP2C9 = CYP2C9 (Homo sapiens (Human), UniProt P11712); assay: CYP inhibition assay, CYP2C9; assay type: in vitro ADME; settings: human liver microsomes, probe diclofenac
# Protocol: as §3, §4
# CYP2D6 = CYP2D6 (Homo sapiens (Human), UniProt P10635); assay: CYP inhibition assay, CYP2D6; assay type: in vitro ADME; settings: human liver microsomes, probe dextromethorphan
# Protocol: as §3, §4
# CYP3A4 = CYP3A4 (Homo sapiens (Human), UniProt P08684); assay: CYP inhibition assay, CYP3A4; assay type: in vitro ADME; settings: human liver microsomes, probe midazolam
# Protocol: as §3, §4
# CYP1A2 = CYP1A2 (Homo sapiens (Human), UniProt P05177); assay: CYP inhibition assay, CYP1A2
# Protocol: as §3, §4
# [3] = clinical PhII trials; side effect attributed to blockade of P2X2/3 channels; cited from earlier work
# [4] = Human liver cytosol stability assay; assay type: in vitro ADME; settings: 4 h incubation, 37° C.
# Protocol: Human Liver Cytosol Stability Assay
# Method description: Human liver cytosol (pooled, >30 male and female donors) was incubated with individual test compounds in order to compare the extent of depletion of test compound and formation of the respective oxidised metabolite. […] An incubation volume of 1000 μL was used. The test compound was added from a stock solution in acetonitrile at 1 or 10 μM concentration in the incubation. Incubations were performed at 37° C. Reactions were stopped at 0 h and 4 h after incubation by addition of 100 μL acetonitrile to 250 μL of incubation mixture. Precipitated proteins were removed by centrifugation at approximately 3000 rpm. The supernatants were stored at approximately −20° C. until they were analysed. […]
# Data analysis: The depletion of the test compound and formation of the corresponding metabolites were determined by decrease or increase of the corresponding peak area in the chromatogram after UV detection at approximately 300 nm 4 h after incubation compared to that at 0 h after incubation. […]
# vaginal hyperalgesia = assay: Rat dyspareunia model (visceromotor response to vaginal distension); assay type: in vivo; settings: 15 mg/kg oral b.i.d. during 2 weeks, 5 and 6 weeks post-implantation
# From the text: The visceromotor response (VMR) to vaginal distension was used in conscious animals as an objective measure of vaginal sensitivity. Briefly, animals in estrus phase were surgically implanted with biopsies of left uterine horn (3×3 mm) around alternate cascade mesenteric arteries that supply the small intestine (4 pieces) and on the wall of the distal colon (2 pieces). To measure VMR response, 2 Teflon-coated wire electrodes were sutured in the external oblique abdominal muscle, and tunneled subcutaneously to be exteriorized at the base of the neck for future access. On the day of VMR assessment, a lubricated small balloon (1 cm length) was inserted into the mid-vaginal canal. […] The electrodes were connected to an amplifier (Animal Bio Amp, ADInstruments), and the abdominal electromyographic signal was recorded using a data acquisition system (PowerLab, ADInstruments) for off-line analysis using LabChart version 7. The number of abdominal muscle contractions was counted manually for each 0.1 ml distension step, as an index of vaginal pain. […] Statistical Analysis All data were expressed as mean±standard deviation (s.d.), for the number (n) of measured rats per group. […] Planned comparison of means (matched-volume versus vehicle) was performed using a Bonferroni post hoc test, provided that a main effect was detected. […]
# Chain of CYP2D6 (P10635 whole entry): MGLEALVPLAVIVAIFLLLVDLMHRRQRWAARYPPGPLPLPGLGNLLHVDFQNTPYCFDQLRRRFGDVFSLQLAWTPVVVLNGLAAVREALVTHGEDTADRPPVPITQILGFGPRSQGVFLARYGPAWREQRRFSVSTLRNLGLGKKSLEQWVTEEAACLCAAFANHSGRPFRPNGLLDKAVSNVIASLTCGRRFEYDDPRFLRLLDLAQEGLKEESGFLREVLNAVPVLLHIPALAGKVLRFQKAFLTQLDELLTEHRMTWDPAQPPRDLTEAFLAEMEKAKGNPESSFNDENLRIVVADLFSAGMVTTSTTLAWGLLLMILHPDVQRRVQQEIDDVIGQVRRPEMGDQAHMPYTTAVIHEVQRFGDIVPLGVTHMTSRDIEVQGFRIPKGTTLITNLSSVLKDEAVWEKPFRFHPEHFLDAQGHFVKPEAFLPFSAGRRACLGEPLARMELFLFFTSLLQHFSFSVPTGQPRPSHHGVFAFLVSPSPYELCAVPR
# Chain of CYP2C8 (P10632 whole entry): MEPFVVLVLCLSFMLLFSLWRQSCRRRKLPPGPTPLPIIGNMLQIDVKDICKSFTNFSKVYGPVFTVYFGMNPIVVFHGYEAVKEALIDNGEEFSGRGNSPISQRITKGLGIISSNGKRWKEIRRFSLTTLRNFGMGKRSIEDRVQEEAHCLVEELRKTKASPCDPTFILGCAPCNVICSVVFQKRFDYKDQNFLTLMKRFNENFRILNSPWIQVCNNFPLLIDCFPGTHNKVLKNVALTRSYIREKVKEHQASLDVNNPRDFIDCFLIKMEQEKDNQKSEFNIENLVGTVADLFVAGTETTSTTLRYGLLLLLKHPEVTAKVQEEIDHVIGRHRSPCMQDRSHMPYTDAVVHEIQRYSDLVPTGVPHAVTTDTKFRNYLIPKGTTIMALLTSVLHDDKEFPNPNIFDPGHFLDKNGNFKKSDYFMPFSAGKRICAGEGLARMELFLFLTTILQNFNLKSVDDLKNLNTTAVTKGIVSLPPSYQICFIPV
# Chain of CYP2C9 (P11712 whole entry): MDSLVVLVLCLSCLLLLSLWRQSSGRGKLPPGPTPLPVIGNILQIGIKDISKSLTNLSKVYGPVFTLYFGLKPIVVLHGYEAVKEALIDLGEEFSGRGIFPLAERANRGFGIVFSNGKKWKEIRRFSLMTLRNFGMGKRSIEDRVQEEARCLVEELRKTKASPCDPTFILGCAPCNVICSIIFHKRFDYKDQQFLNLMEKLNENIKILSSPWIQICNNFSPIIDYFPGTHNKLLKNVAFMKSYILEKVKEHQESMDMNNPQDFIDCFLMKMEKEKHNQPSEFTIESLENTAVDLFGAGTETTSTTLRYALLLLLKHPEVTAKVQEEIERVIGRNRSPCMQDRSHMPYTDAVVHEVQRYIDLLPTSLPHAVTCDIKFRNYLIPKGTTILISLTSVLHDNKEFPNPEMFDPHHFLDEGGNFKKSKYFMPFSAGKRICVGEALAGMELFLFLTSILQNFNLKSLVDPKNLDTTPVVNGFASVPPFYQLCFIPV
# Chain of CYP3A4 (P08684 whole entry): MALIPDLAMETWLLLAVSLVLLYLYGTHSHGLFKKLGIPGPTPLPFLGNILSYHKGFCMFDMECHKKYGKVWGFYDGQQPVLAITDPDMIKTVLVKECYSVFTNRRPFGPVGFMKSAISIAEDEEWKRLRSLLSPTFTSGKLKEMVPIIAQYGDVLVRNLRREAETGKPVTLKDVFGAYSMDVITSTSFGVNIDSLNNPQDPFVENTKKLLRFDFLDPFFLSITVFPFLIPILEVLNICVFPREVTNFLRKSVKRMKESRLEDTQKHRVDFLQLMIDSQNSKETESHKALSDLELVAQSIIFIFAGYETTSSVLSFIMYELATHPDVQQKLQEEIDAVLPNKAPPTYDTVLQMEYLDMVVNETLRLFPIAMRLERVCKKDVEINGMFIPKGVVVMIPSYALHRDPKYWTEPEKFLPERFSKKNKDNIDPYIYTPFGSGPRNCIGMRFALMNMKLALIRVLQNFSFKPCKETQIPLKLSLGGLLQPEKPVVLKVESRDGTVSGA
# Chain of CYP1A2 (P05177 whole entry): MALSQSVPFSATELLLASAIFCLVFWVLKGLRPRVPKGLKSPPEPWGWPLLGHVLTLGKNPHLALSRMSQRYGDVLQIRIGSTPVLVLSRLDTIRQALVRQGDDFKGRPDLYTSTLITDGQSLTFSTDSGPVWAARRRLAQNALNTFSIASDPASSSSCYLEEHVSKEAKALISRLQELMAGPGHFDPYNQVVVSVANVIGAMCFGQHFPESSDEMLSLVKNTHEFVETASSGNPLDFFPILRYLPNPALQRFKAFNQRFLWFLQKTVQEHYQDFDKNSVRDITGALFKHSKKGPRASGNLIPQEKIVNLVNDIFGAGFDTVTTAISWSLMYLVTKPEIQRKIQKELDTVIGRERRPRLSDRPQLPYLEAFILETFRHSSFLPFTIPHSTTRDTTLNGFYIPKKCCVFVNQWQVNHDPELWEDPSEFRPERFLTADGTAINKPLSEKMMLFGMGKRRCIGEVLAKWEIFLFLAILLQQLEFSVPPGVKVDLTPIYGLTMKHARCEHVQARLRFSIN
Compound,Rat hepatocyte Fmax [1] [%],Human liver microsome Fmax [2] [%],other results
"Cc1cnc(-c2cc(OC(C)C(C)O)cc(C(=O)N[C@H](C)c3cnc(C(F)(F)F)nc3)c2)s1 (single isomer, unassigned) [Example 163]",53,100,
"Cc1cnc(-c2cc(OC(C)C(C)O)cc(C(=O)N[C@H](C)c3ccc(C(F)(F)F)nn3)c2)s1 (single isomer, unassigned) [Example 183]",43,74,
"Cc1cnc(-c2cc(OC(C)C(C)O)cc(C(=O)N[C@H](C)c3cnc(C(F)(F)F)nc3)c2)s1 (single isomer, unassigned) [Example 339]",52,94,IC50 (CYP2C8): > 20 µM; IC50 (CYP2C9): > 20 µM; IC50 (CYP2D6): > 20 µM; IC50 (CYP3A4): > 20 µM; IC50 (CYP1A2): > 20 µM
"Cc1cnc(-c2cc(OC(C)C(C)O)cc(C(=O)N[C@H](C)c3cnc(C(F)(F)F)nc3)c2)s1 (single isomer, unassigned) [Example 340]",64,90,
COc1cc(C(C)C)c(Oc2cnc(N)nc2N)cc1S(N)(=O)=O [AF-219],,,taste disturbances in treated subjects [3]: leads to taste disturbances
"Cc1cnc(-c2cc(O[C@@H]3CCOC3)cc(C(=O)N[C@H](C)c3cnc(C(F)(F)F)nc3)c2)s1 [Example 11, 3-(5-Methyl-1,3-thiazol-2-yl)-5-[(3R)-tetrahydrofuran-3-yloxy]-N-{(1R)-1-[2-(trifluoromethyl)pyrimidin-5-yl]ethyl}benzamide]",52,57,Test compound turnover after 4 h [4]: 0.9%; Vaginal hyperalgesia compared to vehicle-treated animals (vaginal hyperalgesia): decreased vaginal hyperalgesia
"Cc1cnc(-c2cc(O[C@H]3CCOC3)cc(C(=O)N[C@H](C)c3cnc(C(F)(F)F)nc3)c2)s1 [Example 26, 3-(5-Methyl-1,3-thiazol-2-yl)-5-[(3S)-tetrahydrofuran-3-yloxy]-N-{(1R)-1-[2-(trifluoromethyl)pyrimidin-5-yl]ethyl}benzamide]",56,67,Test compound turnover after 4 h [4]: 0.9%
"CCc1cnc(-c2cc(OC[C@H]3CN(C)CCO3)cc(C(=O)N[C@H](C)c3ccc(C(F)(F)F)nn3)c2)s1 [Example 419, 3-(5-ethyl-1,3-thiazol-2-yl)-5-{[(2R)-4-methylmorpholin-2-yl]methoxy}-N-{(1R)-1-[6-(trifluoromethyl)pyridazin-3-yl]ethyl}benzamide]",51,74,

# From patent US10472354B2, “1,3-thiazol-2-yl substituted benzamides” (Bayer Aktiengesellschaft, priority 2014, dated 2019)
